# Tests used:
# HT-29 [1] = experiment: Induction of cell cycle arrest in human HT-29 cells assessed as accumulation of cells at G1 phase at 1 uM incubated for 48 hrs by RNaeA/propidium iodide based flow cytometry analysis (reference value: 62.98 %); assay type: functional
# HT-29 [2] = experiment: Induction of mitochondrial membrane potential loss in human HT-29 cells assessed as healthy cells at 4 uM incubated for 48 hrs by JC-1 staining based flow cytometry analysis (reference value: 93.4 %); assay type: functional
# HT-29 [3] = experiment: Induction of apoptosis in human HT-29 cells assessed as early apoptotic cells at 4 uM incubated for 48 hrs by Annexin V-FITC/PI staining based flow cytometry analysis (Rvb= 2.41%); assay type: functional
# HT-29 [4] = experiment: Antiproliferative activity against human HT-29 cells overexpressing NQO1 assessed as inhibition of cell growth incubated for 72 hrs by MTT assay; assay type: functional, cell-based; conditions: HT-29, 72 h
# HT-29 [5] = experiment: Induction of mitochondrial membrane potential loss in human HT-29 cells assessed as JC-1 monomer formation by measuring increase in green intensity at 4 uM incubated for 48 hrs by JC-1 staining based flow cytometry analysis (reference value: 6.54 %); assay type: functional
# HT-29 [6] = experiment: Induction of apoptosis in human HT-29 cells assessed as viable cells at 2 uM incubated for 48 hrs by Annexin V-FITC/PI staining based flow cytometry analysis (Rvb= 96.54%); assay type: functional; conditions: read-out: Activity
# HT-29 [7] = experiment: Induction of mitochondrial membrane potential loss in human HT-29 cells assessed as JC-1 monomer formation by measuring increase in green intensity at 2 uM incubated for 48 hrs by JC-1 staining based flow cytometry analysis (reference value: 6.54 %); assay type: functional
# HT-29 [8] = experiment: Induction of apoptosis in human HT-29 cells assessed as dead cells at 2 uM incubated for 48 hrs by Annexin V-FITC/PI staining based flow cytometry analysis (Rvb= 0.01%); assay type: functional
# HT-29 [9] = experiment: Induction of cell cycle arrest in human HT-29 cells assessed as accumulation of cells at G1 phase at 2 uM incubated for 48 hrs by RNaeA/propidium iodide based flow cytometry analysis (reference value: 62.98 %); assay type: functional
# HT-29 [10] = experiment: Antitumor activity against human HT-29 cells overexpressing NQO-1 xenografted in ICR mouse assessed as reduction in tumor weight at 30 mg/kg, ip administered every day for 21 days and measured every 2 days relative to control; assay type: functional; design: scale not given: the % may be the effect or the level left; conditions: time 21 day
# HT-29 [11] = experiment: Induction of cell cycle arrest in human HT-29 cells assessed as accumulation of cells at S phase at 4 uM incubated for 48 hrs by RNaeA/propidium iodide based flow cytometry analysis (reference value: 23.06 %); assay type: functional
# HT-29 [12] = experiment: Induction of mitochondrial membrane potential loss in human HT-29 cells assessed as healthy cells at 2 uM incubated for 48 hrs by JC-1 staining based flow cytometry analysis (reference value: 93.4 %); assay type: functional
smiles,measurement,setting,value
C=C(C)[C@@H]1CC[C@]2(C(=O)OCCOC(=O)CCC(=O)OCc3cn(C)c4c3C(=O)C(OC)=CC4=O)CC[C@]3(C)[C@H](CC[C@@H]4[C@@]5(C)CC[C@H](O)[C@@](C)(CO)[C@@H]5CC[C@]43C)[C@@H]12,Activity,HT-29 [1],56.44%
same,Activity,HT-29 [2],55.52%
same,Activity,HT-29 [3],32.28%
same,IC50,HT-29 [4],1.87 µM
same,Activity,HT-29 [5],44.48%
same,viability at 2 µM,HT-29 [6],55.7%
same,Activity,HT-29 [7],33.41%
same,Activity,HT-29 [8],5.03%
same,Activity,HT-29 [9],52.73%
same,Activity,HT-29 [10],72.69%
same,Activity,HT-29 [11],27.66%
same,Activity,HT-29 [12],66.47%

# From ChEMBL document CHEMBL5113483, “Design and synthesis of NAD(P)H: Quinone oxidoreductase (NQO1)-activated prodrugs of 23-hydroxybetulinic acid with enhanced antitumor properties” (Eur J Med Chem, 2022)
